Assay [1] can be described thus: MP-catalyzed peroxynitrite decomposition monitored at 302 nm. To be noted: for Rate Constants for MP-Catalyzed Decomposition of Peroxynitrite (pH 7.4, 37° C.): 100 μM peroxynitrite, absence of added reductants. It is filed as biochemical. Here is the method: Peroxynitrite (100 μM) was added to rapidly stirred cuvettes at 37° C. containing the indicated concentrations of MPs in 0.1 M potassium phosphate, pH 7.4. Ascorbate was added to 150 μM where indicated. Peroxynitrite decomposition was monitored at 302 nm using a Hewlett-Packard diode-array spectrophotometer. Apparent rates (kapparents^−1, average of n=3) were plotted versus MP concentration to determine rate constants in M^−1s^−1.
Reactions contained the indicated concentration of FeTCPPin 1.4 ml of 0.1 M potassium phosphate, pH 7.4 in the absence or presence to 150 μM ascorbic acid. Peroxynitrite (100 μM) was added to rapidly stirred cuvettes at 37° C. and the decay of peroxynitrite was monitored continuously at 302 nm. Decay data were fitted to the equation describing first order decay to obtain apparent decay rates (kapparent sec^−1). Apparent decay rates as a function of FeTCPP were fitted by linear regression and the rate constant was obtained slope of the line.
Peroxynitrite (100 μM) decomposition was determined at 302 nm using a Hewlett-Packard diode-array spectrophotometer fitted with a temperature-controlled cuvette chamber and a water-driven cuvette stirrer. Bolus additions of peroxynitrite were made to vigorously stirred cuvettes containing varying concentrations of MPs (see Table III) while data were collected at a rate of ten points/sec. […] Each reaction was repeated three times and only the first additions of peroxynitrite were averaged. Data were exported for fitting and plotting. Apparent rates of peroxynitrite decomposition were plotted as a function of metalloporphyrin concentration (as shown in FIG. 5) to determine concentration-independent rate constants at 37° C.
Rates of peroxynitrite (100 μM) decomposition were determined at different MP concentrations. Ascorbate was added to 150 μM where indicated. […] Apparent rate constants were plotted versus MP concentration (as in FIG. 5A,B) to determine true rate constants in M^−1s^−1±standard error.

Assay [2] is described as follows: Peroxynitrite-mediated nitration of GYA peptide. It counts as biochemical. The note with it: 2 mM GYA; for effect on nitration: 10 μM MP, pH 7.4; for enhancement of nitration yield: 10 μM MP or SOD subunit, 1 mM CO2, pH 7.4, 37° C. As for the experimental part:
Nitration efficiency, defined as the moles of nitrated GYA peptide formed per mole of peroxynitrite added, was determined at a fixed concentration of 10 μM MP or Cu,Zn SOD subunit, or 1 mM CO2 as described below. Increasing amounts of peroxynitrite were added in a sequential manner in order to determine whether nitration efficiency varied with concentration and to determine whether nitration catalysis was maintained with multiple additions (see INSET). Nitration efficiency was calculated for each peroxynitrite addition; the values shown are the average of all nine peroxynitrite additions. Absorbance changes were monitored simultaneously at 380, 430, and 460 nm.
(§1) For nitration of GYA peptide (see FIG. 6), reaction solutions contained 2 mM GYA and 10 μM of the indicated MP in 1.4 ml of 0.1 M potassium phosphate, pH 7.4 at 37° C. Comparisons with two previously characterized nitration catalysts, human Cu,Zn superoxide dismutase (hCu,Zn SOD) and carbon dioxide, were made using 10 μM of SOD subunit and 25 mM potassium bicarbonate, respectively, which was pH-adjusted to 7.4. This level of bicarbonate results in rapid saturation of the solution with carbon dioxide (˜1 mM). Solutions were placed into a rapidly stirred cuvette and nine bolus additions (50 μM×3, 100 μM×3, and 200 μM×3) of peroxynitrite were made sequentially while the absorbance was monitored. Increasing amounts of peroxynitrite were added in a sequential manner in order to determine whether nitration efficiency varied with concentration and to determine whether nitration catalysis was maintained with multiple additions (see FIG. 6 inset). Nitration efficiency was defined as the amount of nitropeptide formed per amount of peroxynitrite added and was calculated for each peroxynitrite addition; the values shown are the average of all nine peroxynitrite additions. The absorbance changes associated with nitrotyrosine peptide production were monitored simultaneously at 380, 430, and 460 nm. The extinction coefficients for nitrated GYA at pH 7.4 are 4,400 M^−1cm^−1 at 430 nm and 2,200 M^−1cm^−1 at both 380 and 460 nm. […] Wavelengths used to quantify nitrotyrosine production were chosen to minimize interference by the particular metalloporphyrin used. Experiments using HPA as a nitration target (FIG. 7) contained 8 mM HPA in either 0.1 M potassium phosphate, pH 7.4 or 0.1 M sodium borate, pH 9.1.
The relative abilities of several MPs to enhance nitration of the tripeptide GYA was compared using 10 μM MP and sequential bolus additions of 50 μM (×3), 100 μM (×3), and 200 μM (×3)peroxynitrite (FIG. 6, inset).

For assay [3], the system named is cultured motor neurons. As to the kind of experiment: Protection of cultured motor neurons from growth factor withdrawal. It is filed as cell-based. To be noted: for level of protection compared with FeTCPP: 72 hr after trophic factor deprivation. Here is the method:
Culture Motor neurons were prepared from embryonic day 15 (E15) rat spinal cords by a combination of metrizamide gradient centrifugation and immunopanning with the monoclonal antibody IgG192 (Chandler et al., J. Biol. Chem. 259:6882-6889, 1984) as previously described (Estevez et al., J Neurosci 18:923-931, 1998; Henderson C E, Bloch-Gallego E, Camu W (1995): Purification and culture of embryonic motorneurons. In Cohen J, Wilkin G (eds): Neural Cell Culture: A Practical Approach. Oxford, England: IRL Press, pp 69-81). Long-term cultures of motor neurons were performed as described by Pennica et al. (Pennica et al., Neuron 17:63-74, 1996). Briefly, motor neurons were plated at a density of 200 cells/cm2 on 35 mm dishes precoated with polyornithine-laminin in Neurobasal medium supplemented with B27 (Life Technologies, Grand Island, N.Y.), 2% horse serum, 0.5 mM L-glutamine, 25 μM 2-mercaptoethanol and 25 μM L-glutamate. Every 3-4 days ¾ of the culture medium was replaced by fresh medium lacking L-glutamate and containing sufficient quantities of BDNF or FeTCPP to supplement the 2 ml of medium in the dish. More than 94% of the cells were immunoreactive for the p75 low-affinity neurotrophic receptor (p75NTR) and Islet ½, which are markers for motor neurons. The experiments were repeated at least 2 times using the same lot of Neurobasal medium and B 27 supplement.
The number of motor neurons with neurites longer than 4 soma diameters present in parallel cultures treated with BDNF at a final concentration of 100 pg/ml 24 h after plating or culture media replacement was considered 100% motor neuron survival. FeTCPP was resuspended in complete Neurobasal medium at a 5 mM concentration. Dilutions were performed of the stock solution to add 20 μl per dish.
Rat motor neurons survive many days in culture when brain-derived neurotrophic factor (BDNF) is added to the culture media. Because motor neurons are the cells that preferentially die in ALS, primary cultures of motor neurons represent the best non-animal model of ALS. Withdrawal of BDNF results in apoptotic death of >70% of motor neurons within 24 h. Cell death was correlated with expression of the neuronal form of nitric oxide synthase (nNOS) and the production of peroxynitrite, as evidenced by protein tyrosine nitration. When FeTCPP is added to the culture media in place of BDNF and motor neuron survival is assessed at 24 h, some protection is seen at concentrations as low as 0.01 μM (FIG. 10A). […] Additionally, a comparison of the effect of FETCPP and its tetra-methyl ester derivative, TMeO-FeTCPP, on motor neuron survival at 72 hr.

The subject of assay [4] is ALS-SOD1 (G93A) transgenic mice. As to the kind of experiment: Survival of ALS-SOD1 (G93A) transgenic mice. It counts as in vivo. To be noted: G93A mutant of Cu,Zn superoxide dismutase transgene. As for the experimental part:
FIG. 13A: Transgenic mice (n=9) were injected intraperitoneally with 3 mg/kg/day of a low molecular weight (844.6) synthetic iron porphyrin. […] Treatment was continued until such time that signs of diaphragm weakness (labored breathing) necessitated sacrifice. A control group of transgenic mice was treated with vehicle only (phosphate-buffered saline). FIG. 13B: Transgenic mice were injected intraperitoneally with 1 mg/kg/day of a low molecular weight (844.6) synthetic iron porphyrin. Treatment began at day 60 prior to the onset of symptoms. A control group of transgenic mice was treated with vehicle only (phosphate-buffered saline).
Mice transgenic for the G93A mutated form of SOD1 are generally accepted as the standard model of motor neuron disease. […] This compound extended the mean survival time by 13 days (from 127 to 140 days) (FIG. 13A).
A group of G93A mice was treated with 1 mg/kg of FeTCPP intraperitoneally beginning at 60 days of age. As with the control group in FIG. 13A, none of the control group in this test survived past 132 days. However, the probability of survival at 140 days was about 37% and at approximately 180 days survival was still at 20%.

Assay [5] is described as follows: Ascorbate oxidation by MPs monitored at 266 nm. It is filed as biochemical. To be noted: MP 10 μM, 50 μM ascorbate, 0.1 M potassium phosphate pH 7.4, ± standard error, n=3. As for the experimental part:
In order to test the hypothesis that Mn(II)- or Fe(II)-porphyrins would be capable of carrying out two-electron reductions of peroxynitrite and thereby decreasing rather than increasing its reactivity, attempts were made to pre-reduce these transition metal-containing MPs prior to addition of peroxynitrite.
Table V. Ascorbate oxidation by MPs. MPs (10 μM) were added to stirred cuvettes containing 0.1 M potassium phosphate, pH 7.4 and 50 μM ascorbate. Ascorbate oxidation was monitored at 266 nm (ηm=17,700 M^−1cm^−1). Oxidation rates (±standard errors) were determined by fitting the initial linear portion of each curve and averaging the rates (n=3).

The nature of assay [6]: MP-catalyzed nitration of HPA: effect of pH, reductants and serum. It is filed as biochemical. As for the experimental part: Single additions of 100 μM peroxynitrite were made to reactions containing ascorbate or GSH. Three sequential additions of 100 μM peroxynitrite were made to all other reactions.
as §1, with “This” for “For nitration of GYA peptide (see FIG. 6), reaction solutions contained 2 mM GYA and 10 μM of the indicated MP in 1.4 ml of 0.1 M potassium phosphate, pH 7.4 at 37° C. Comparisons with two previously characterized nitration catalysts, human Cu,Zn superoxide dismutase (hCu,Zn SOD) and carbon dioxide, were made using 10 μM of SOD subunit and 25 mM potassium bicarbonate, respectively, which was pH-adjusted to 7.4. This”

Regarding `O=C(O)c1ccc(-c2c3nc(c(-c4ccc(C(=O)O)cc4)c4ccc([n-]4)c(-c4ccc(C(=O)O)cc4)c4nc(c(-c5ccc(C(=O)O)cc5)c5ccc2[n-]5)C=C4)C=C3)cc1.[Zn+2]` [ZnTBAP, Zinc (II) tetra-(4-benzoic acid)-porphyrin], in assay [1], the “Rate Constants for MP-Catalyzed Decomposition of Peroxynitrite (pH 7.4, 37° C.)” value is reported as 5.3 × 10^3 ± 0.3 M^−1s^−1. The effect on nitration result in assay [2] was “small but reproducible inhibitory effect”.
Regarding `O=C1O[C@H]([C@@H](O)CO)C(O)=C1O` [ascorbate, ascorbic acid], the “acceleration of peroxynitrite decomposition” value in assay [1] (ascorbate alone 150 μM, no MP) came out at 16%.
For the molecule `O=C=O` [carbon dioxide], the “enhancement of nitration yield” value in assay [2] is on record as 1.7 fold.
For the molecule “Copper (II) meso-tetra-(4-sulfonatophenyl)-porphyrin [CuTSPP]”, in assay [2], the effect on nitration entry is recorded as “small but reproducible inhibitory effect”.
Take “Iron (III) meso 5,10,15,20-tetrakis-(4-carboxymethyl-phenyl) porphyrin [FeTMeO-TCPP]”: the “survival of cultured motor neurons deprived of growth factors” value in assay [3] is “prolong survival of cultured motor neurons”. In addition, the “level of protection compared with FeTCPP” value was “twice the level of protection” in assay [3] (0.01 μM) and “slightly greater level of protection” in assay [3] (0.1 μM). For the same molecule, the “progression of motor neuron death in mice” value in assay [4] is listed as “slow the progression of motor neuron death”.
For “Iron (III) meso-tetra-(4-sulfonatophenyl)-porphyrin [FeTSPP]”, the “Rate Constants for MP-Catalyzed Decomposition of Peroxynitrite (pH 7.4, 37° C.)” value in assay [1] is 3.3 × 10^5 ± 0.4 M^−1s^−1. Besides, the “enhancement of nitration yield” value in assay [2] is given as 5.3 fold. The “Rate of Ascorbate Oxidation” value in assay [5] is 4.58 ± 0.21 µM/min. Further, the “enhancement of nitration yield at pH 9.1” value in assay [6] (8 mM HPA, 10 μM MP, 0.1 M sodium borate pH 9.1, versus non-catalyzed) stood at 2.8 fold. The “effect of ascorbate and GSH on nitration enhancement” value in assay [6] (concentrations which eliminated non-catalyzed nitration) is “largely prevented the enhancement of nitration”. The “effect of serum on nitration enhancement” value in assay [6] (fresh human serum 1:10 added prior to peroxynitrite) is “largely eliminated the nitration enhancement”.

B1: BDNF: brain-derived neurotrophic factor (protein, UniProt P23560 19-247, looked up)
Neurotrophic factor BDNF …: APMKEANIRGQGGLAYPGVRTHGTLESVNGPKAGSRGLTSLADTFEHVIEELLDEDQKVRPNEENNKDADLYTSRVMLSSQVPLEPPLLFLLEEYKNYLDAANMSMRVRRHSDPARRGELSVCDSISEWVTAADKKTAVDMSGGTVTVLEKVPVSKGQLKQYFYETKCNPMGYTKEGCRGIDKRHWNSQCRTTQSYVRALTMDSKKRIGWRFIRIDTSCVCTLTIKRGR
In the case of B1, the “motor neurons that die between day 8 and day 16” value in assay [3] (long-term culture in the presence of BDNF) is reported as 80%.
